{
  "source": "patent US4464385A",
  "about": "“Treatment of diabetic complications with hydantoins” (Alcon Laboratories, Inc., priority 1982, dated 1984)",
  "key": {"cataracts in rats": {"test_system": "cataracts in rats", "test": "Prevention or retardation of cataracts in galactose-fed rats", "type": "in vivo, rat", "settings": "for % of Total Eyes, S (snowflake) / Number of Eyes Observed, + (vacuole) / Number of Eyes Observed, - (Normal) / Number of Eyes Observed, N (nuclear cataract) / Number of Eyes Observed, S (snowflake) / Number of Eyes Observed, ± / % of Total Eyes, + (vacuole) / % of Total Eyes, - (Normal) / % of Total Eyes, N (nuclear cataract): 30% galactose diet, A,C,E 0.0025%, B,D 0.01%", "how_it_was_run": "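Twelve rats per treatment, after two days on chow, were fed compound/diet mixtures ad libitum from Study Day 1 for thirty days; the 0.01% level was designed for 20 mg/kg/day. Cataracts were scored per eye using ophthalmoscope and/or penlight.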"}, "aldose reductase": {"test_system": "aldose reductase", "test": "Aldose reductase inhibition / potency (general statement)"}},
  "data": [
    {"substance": "dl-spiro-(6-methylthio-chroman-4,4'-imidazolidine)-2',5'-dione", "values": [
      {"measurement": "% of Total Eyes, S (snowflake)", "setting": "cataracts in rats; Study Day 14", "value": 58.4, "unit": "%"},
      {"measurement": "Number of Eyes Observed, + (vacuole)", "setting": "cataracts in rats; Study Day 14", "value": 10, "unit": "eyes"},
      {"measurement": "Number of Eyes Observed, - (Normal)", "setting": "cataracts in rats; Study Day 14", "value": 0, "unit": "eyes"},
      {"measurement": "Number of Eyes Observed, N (nuclear cataract)", "setting": "cataracts in rats; Study Day 14", "value": 0, "unit": "eyes"},
      {"measurement": "Number of Eyes Observed, S (snowflake)", "setting": "cataracts in rats; Study Day 14", "value": 14, "unit": "eyes"},
      {"measurement": "Number of Eyes Observed, ±", "setting": "cataracts in rats; Study Day 14", "value": 0, "unit": "eyes"},
      {"measurement": "% of Total Eyes, + (vacuole)", "setting": "cataracts in rats; Study Day 16", "value": 37.5, "unit": "%"},
      {"measurement": "% of Total Eyes, - (Normal)", "setting": "cataracts in rats; Study Day 16", "value": 0, "unit": "%"},
      {"measurement": "% of Total Eyes, N (nuclear cataract)", "setting": "cataracts in rats; Study Day 16", "value": 0, "unit": "%"},
      {"measurement": "% of Total Eyes, S (snowflake)", "setting": "cataracts in rats; Study Day 16", "value": 62.5, "unit": "%"},
      {"measurement": "Number of Eyes Observed, + (vacuole)", "setting": "cataracts in rats; Study Day 16", "value": 9, "unit": "eyes"},
      {"measurement": "Number of Eyes Observed, - (Normal)", "setting": "cataracts in rats; Study Day 16", "value": 0, "unit": "eyes"},
      {"measurement": "Number of Eyes Observed, N (nuclear cataract)", "setting": "cataracts in rats; Study Day 16", "value": 0, "unit": "eyes"},
      {"measurement": "Number of Eyes Observed, S (snowflake)", "setting": "cataracts in rats; Study Day 16", "value": 15, "unit": "eyes"},
      {"measurement": "Number of Eyes Observed, ±", "setting": "cataracts in rats; Study Day 16", "value": 0, "unit": "eyes"},
      {"measurement": "% of Total Eyes, + (vacuole)", "setting": "cataracts in rats; Study Day 18", "value": 25.0, "unit": "%"},
      {"measurement": "% of Total Eyes, - (Normal)", "setting": "cataracts in rats; Study Day 18", "value": 0, "unit": "%"},
      {"measurement": "% of Total Eyes, N (nuclear cataract)", "setting": "cataracts in rats; Study Day 18", "value": 0, "unit": "%"},
      {"measurement": "% of Total Eyes, S (snowflake)", "setting": "cataracts in rats; Study Day 18", "value": 75.0, "unit": "%"},
      {"measurement": "Number of Eyes Observed, + (vacuole)", "setting": "cataracts in rats; Study Day 18", "value": 6, "unit": "eyes"},
      {"measurement": "Number of Eyes Observed, - (Normal)", "setting": "cataracts in rats; Study Day 18", "value": 0, "unit": "eyes"},
      {"measurement": "Number of Eyes Observed, N (nuclear cataract)", "setting": "cataracts in rats; Study Day 18", "value": 0, "unit": "eyes"},
      {"measurement": "Number of Eyes Observed, S (snowflake)", "setting": "cataracts in rats; Study Day 18", "value": 0, "unit": "eyes"},
      {"measurement": "Number of Eyes Observed, ±", "setting": "cataracts in rats; Study Day 18", "value": 0, "unit": "eyes"},
      {"measurement": "% of Total Eyes, + (vacuole)", "setting": "cataracts in rats; Study Day 20", "value": 20.8, "unit": "%"},
      {"measurement": "% of Total Eyes, - (Normal)", "setting": "cataracts in rats; Study Day 20", "value": 0, "unit": "%"},
      {"measurement": "% of Total Eyes, N (nuclear cataract)", "setting": "cataracts in rats; Study Day 20", "value": 0, "unit": "%"},
      {"measurement": "% of Total Eyes, S (snowflake)", "setting": "cataracts in rats; Study Day 20", "value": 79.2, "unit": "%"},
      {"measurement": "Number of Eyes Observed, + (vacuole)", "setting": "cataracts in rats; Study Day 20", "value": 5, "unit": "eyes"},
      {"measurement": "Number of Eyes Observed, - (Normal)", "setting": "cataracts in rats; Study Day 20", "value": 0, "unit": "eyes"},
      {"measurement": "Number of Eyes Observed, N (nuclear cataract)", "setting": "cataracts in rats; Study Day 20", "value": 0, "unit": "eyes"},
      {"measurement": "Number of Eyes Observed, S (snowflake)", "setting": "cataracts in rats; Study Day 20", "value": 19, "unit": "eyes"},
      {"measurement": "Number of Eyes Observed, ±", "setting": "cataracts in rats; Study Day 20", "value": 0, "unit": "eyes"},
      {"measurement": "% of Total Eyes, + (vacuole)", "setting": "cataracts in rats; Study Day 22", "value": 8.3, "unit": "%"},
      {"measurement": "% of Total Eyes, - (Normal)", "setting": "cataracts in rats; Study Day 22", "value": 0, "unit": "%"},
      {"measurement": "% of Total Eyes, N (nuclear cataract)", "setting": "cataracts in rats; Study Day 22", "value": 4.2, "unit": "%"},
      {"measurement": "% of Total Eyes, S (snowflake)", "setting": "cataracts in rats; Study Day 22", "value": 87.5, "unit": "%"},
      {"measurement": "Number of Eyes Observed, + (vacuole)", "setting": "cataracts in rats; Study Day 22", "value": 2, "unit": "eyes"},
      {"measurement": "Number of Eyes Observed, - (Normal)", "setting": "cataracts in rats; Study Day 22", "value": 0, "unit": "eyes"},
      {"measurement": "Number of Eyes Observed, N (nuclear cataract)", "setting": "cataracts in rats; Study Day 22", "value": 1, "unit": "eyes"},
      {"measurement": "Number of Eyes Observed, S (snowflake)", "setting": "cataracts in rats; Study Day 22", "value": 21, "unit": "eyes"},
      {"measurement": "Number of Eyes Observed, ±", "setting": "cataracts in rats; Study Day 22", "value": 0, "unit": "eyes"},
      {"measurement": "% of Total Eyes, + (vacuole)", "setting": "cataracts in rats; Study Day 24", "value": 4.2, "unit": "%"},
      {"measurement": "% of Total Eyes, - (Normal)", "setting": "cataracts in rats; Study Day 24", "value": 0, "unit": "%"},
      {"measurement": "% of Total Eyes, N (nuclear cataract)", "setting": "cataracts in rats; Study Day 24", "value": 4.2, "unit": "%"},
      {"measurement": "% of Total Eyes, S (snowflake)", "setting": "cataracts in rats; Study Day 24", "value": 91.7, "unit": "%"},
      {"measurement": "Number of Eyes Observed, + (vacuole)", "setting": "cataracts in rats; Study Day 24", "value": 1, "unit": "eyes"},
      {"measurement": "Number of Eyes Observed, - (Normal)", "setting": "cataracts in rats; Study Day 24", "value": 0, "unit": "eyes"},
      {"measurement": "Number of Eyes Observed, N (nuclear cataract)", "setting": "cataracts in rats; Study Day 24", "value": 1, "unit": "eyes"},
      {"measurement": "Number of Eyes Observed, S (snowflake)", "setting": "cataracts in rats; Study Day 24", "value": 22, "unit": "eyes"},
      {"measurement": "Number of Eyes Observed, ±", "setting": "cataracts in rats; Study Day 24", "value": 0, "unit": "eyes"},
      {"measurement": "% of Total Eyes, + (vacuole)", "setting": "cataracts in rats; Study Day 26", "value": 0, "unit": "%"},
      {"measurement": "% of Total Eyes, - (Normal)", "setting": "cataracts in rats; Study Day 26", "value": 0, "unit": "%"},
      {"measurement": "% of Total Eyes, N (nuclear cataract)", "setting": "cataracts in rats; Study Day 26", "value": 4.2, "unit": "%"},
      {"measurement": "% of Total Eyes, S (snowflake)", "setting": "cataracts in rats; Study Day 26", "value": 95.8, "unit": "%"},
      {"measurement": "Number of Eyes Observed, + (vacuole)", "setting": "cataracts in rats; Study Day 26", "value": 0, "unit": "eyes"},
      {"measurement": "Number of Eyes Observed, - (Normal)", "setting": "cataracts in rats; Study Day 26", "value": 0, "unit": "eyes"},
      {"measurement": "Number of Eyes Observed, N (nuclear cataract)", "setting": "cataracts in rats; Study Day 26", "value": 1, "unit": "eyes"},
      {"measurement": "Number of Eyes Observed, S (snowflake)", "setting": "cataracts in rats; Study Day 26", "value": 23, "unit": "eyes"},
      {"measurement": "Number of Eyes Observed, ±", "setting": "cataracts in rats; Study Day 26", "value": 0, "unit": "eyes"},
      {"measurement": "% of Total Eyes, + (vacuole)", "setting": "cataracts in rats; Study Day 28", "value": 0, "unit": "%"},
      {"measurement": "% of Total Eyes, - (Normal)", "setting": "cataracts in rats; Study Day 28", "value": 0, "unit": "%"},
      {"measurement": "% of Total Eyes, N (nuclear cataract)", "setting": "cataracts in rats; Study Day 28", "value": 12.5, "unit": "%"},
      {"measurement": "% of Total Eyes, S (snowflake)", "setting": "cataracts in rats; Study Day 28", "value": 87.5, "unit": "%"},
      {"measurement": "Number of Eyes Observed, + (vacuole)", "setting": "cataracts in rats; Study Day 28", "value": 0, "unit": "eyes"},
      {"measurement": "Number of Eyes Observed, - (Normal)", "setting": "cataracts in rats; Study Day 28", "value": 0, "unit": "eyes"},
      {"measurement": "Number of Eyes Observed, N (nuclear cataract)", "setting": "cataracts in rats; Study Day 28", "value": 3, "unit": "eyes"},
      {"measurement": "Number of Eyes Observed, S (snowflake)", "setting": "cataracts in rats; Study Day 28", "value": 21, "unit": "eyes"},
      {"measurement": "Number of Eyes Observed, ±", "setting": "cataracts in rats; Study Day 28", "value": 0, "unit": "eyes"},
      {"measurement": "% of Total Eyes, + (vacuole)", "setting": "cataracts in rats; Study Day 30", "value": 0, "unit": "%"},
      {"measurement": "% of Total Eyes, - (Normal)", "setting": "cataracts in rats; Study Day 30", "value": 0, "unit": "%"},
      {"measurement": "% of Total Eyes, N (nuclear cataract)", "setting": "cataracts in rats; Study Day 30", "value": 16.7, "unit": "%"},
      {"measurement": "% of Total Eyes, S (snowflake)", "setting": "cataracts in rats; Study Day 30", "value": 83.3, "unit": "%"},
      {"measurement": "Number of Eyes Observed, + (vacuole)", "setting": "cataracts in rats; Study Day 30", "value": 0, "unit": "eyes"},
      {"measurement": "Number of Eyes Observed, - (Normal)", "setting": "cataracts in rats; Study Day 30", "value": 0, "unit": "eyes"},
      {"measurement": "Number of Eyes Observed, N (nuclear cataract)", "setting": "cataracts in rats; Study Day 30", "value": 4, "unit": "eyes"},
      {"measurement": "Number of Eyes Observed, S (snowflake)", "setting": "cataracts in rats; Study Day 30", "value": 20, "unit": "eyes"},
      {"measurement": "Number of Eyes Observed, ±", "setting": "cataracts in rats; Study Day 30", "value": 0, "unit": "eyes"},
      {"measurement": "inhibitory capacity relative to diastereomeric mixture of 6-sulfinyl derivative", "setting": "cataracts in rats; fold greater", "value": 1.5},
      {"measurement": "time to vacuole formation, 0.0025% methylthio versus 0.01% sulfinyl", "setting": "cataracts in rats; methylthio 0.0025%, sulfinyl 0.01% in diet", "value": "not different from each other"},
      {"measurement": "potency relative to the resolved 6-fluoro compound", "setting": "aldose reductase", "value": "potency similar to the resolved 6-fluoro compound"}
    ]}
  ]
}
